In the NIST ThermoML archive (doi:10.1016/j.jct.2005.09.004):
± gives the expanded uncertainty stated by the source.

Experiments:
[1] = xn = mol fraction of the nth substance listed; settings: for surface tension liquid-gas: Drop volume; for mass density: 101 kPa, Liquid
[2] = refractive index (Na D-line) (dimensionless); φn = volume fraction of the nth substance listed; settings: 101 kPa, Liquid, Standard Abbe refractometry

C1COCCO1 [1,4-dioxane] + C1CCCCC1
Settings	mass density [kg/m3]	refractive index	surface tension liquid-gas [mN/m]
[1], 283.15 K, x1 = 0.0502	796.53 ± 0.23	–	–
[1], 283.15 K, x1 = 0.0684	–	–	26.1 ± 0.29
[1], 283.15 K, x1 = 0.0999	805.45 ± 0.22	–	–
[1], 283.15 K, x1 = 0.1484	–	–	25.94 ± 0.29
[1], 283.15 K, x1 = 0.1953	823.9 ± 0.21	–	–
[1], 283.15 K, x1 = 0.2267	–	–	25.85 ± 0.29
[1], 283.15 K, x1 = 0.2899	843.69 ± 0.2	–	–
[1], 283.15 K, x1 = 0.2974	–	–	25.97 ± 0.29
[1], 283.15 K, x1 = 0.3996	868.5 ± 0.18	–	–
[1], 283.15 K, x1 = 0.4402	–	–	26.2 ± 0.3
[1], 283.15 K, x1 = 0.5017	893.36 ± 0.16	–	–
[1], 283.15 K, x1 = 0.5509	–	–	26.51 ± 0.3
[1], 283.15 K, x1 = 0.6007	919.28 ± 0.15	–	–
[1], 283.15 K, x1 = 0.6578	–	–	27.08 ± 0.3
[1], 283.15 K, x1 = 0.699	946.87 ± 0.13	–	–
[1], 283.15 K, x1 = 0.7394	–	–	27.97 ± 0.31
[1], 283.15 K, x1 = 0.7956	976.06 ± 0.12	–	–
[1], 283.15 K, x1 = 0.8115	–	–	29.3 ± 0.33
[1], 283.15 K, x1 = 0.8994	1009.7 ± 0.11	–	–
[1], 283.15 K, x1 = 0.9186	–	–	32 ± 0.35
[1], 283.15 K, x1 = 0.9446	1025.26 ± 0.12	–	–
[1], 283.15 K, x1 = 0.9738	–	–	33.93 ± 0.37
[1], 298.15 K, x1 = 0.0535	782.54 ± 0.24	–	–
[1], 298.15 K, x1 = 0.0684	–	–	25.1 ± 0.28
[1], 298.15 K, x1 = 0.1053	791.71 ± 0.23	–	–
[1], 298.15 K, x1 = 0.1484	–	–	25.24 ± 0.29
[1], 298.15 K, x1 = 0.1998	809.79 ± 0.22	–	–
[1], 298.15 K, x1 = 0.2267	–	–	25.29 ± 0.29
[1], 298.15 K, x1 = 0.2974	–	–	25.38 ± 0.29
[1], 298.15 K, x1 = 0.3003	830.58 ± 0.2	–	–
[1], 298.15 K, x1 = 0.4026	853.43 ± 0.19	–	–
[1], 298.15 K, x1 = 0.4402	–	–	25.72 ± 0.29
[1], 298.15 K, x1 = 0.5006	876.98 ± 0.17	–	–
[1], 298.15 K, x1 = 0.5509	–	–	26.07 ± 0.29
[1], 298.15 K, x1 = 0.5971	901.85 ± 0.16	–	–
[1], 298.15 K, x1 = 0.6578	–	–	26.62 ± 0.3
[1], 298.15 K, x1 = 0.7028	931.22 ± 0.14	–	–
[1], 298.15 K, x1 = 0.7394	–	–	27.1 ± 0.3
[1], 298.15 K, x1 = 0.8089	963.35 ± 0.12	–	–
[1], 298.15 K, x1 = 0.8115	–	–	28 ± 0.31
[1], 298.15 K, x1 = 0.9038	994.24 ± 0.11	–	–
[1], 298.15 K, x1 = 0.9186	–	–	30.26 ± 0.34
[1], 298.15 K, x1 = 0.9485	1009.6 ± 0.11	–	–
[1], 298.15 K, x1 = 0.9738	–	–	31.99 ± 0.35
[1], 313.15 K, x1 = 0.0497	767.71 ± 0.25	–	–
[1], 313.15 K, x1 = 0.0684	–	–	23.8 ± 0.27
[1], 313.15 K, x1 = 0.102	776.79 ± 0.24	–	–
[1], 313.15 K, x1 = 0.1484	–	–	24.23 ± 0.28
[1], 313.15 K, x1 = 0.1944	794 ± 0.23	–	–
[1], 313.15 K, x1 = 0.2267	–	–	24.46 ± 0.28
[1], 313.15 K, x1 = 0.2926	813.99 ± 0.22	–	–
[1], 313.15 K, x1 = 0.2974	–	–	24.71 ± 0.28
[1], 313.15 K, x1 = 0.3973	837 ± 0.2	–	–
[1], 313.15 K, x1 = 0.4402	–	–	25.23 ± 0.29
[1], 313.15 K, x1 = 0.4969	860.64 ± 0.18	–	–
[1], 313.15 K, x1 = 0.5509	–	–	25.7 ± 0.29
[1], 313.15 K, x1 = 0.5992	886.73 ± 0.17	–	–
[1], 313.15 K, x1 = 0.6578	–	–	26.2 ± 0.3
[1], 313.15 K, x1 = 0.6988	914.22 ± 0.15	–	–
[1], 313.15 K, x1 = 0.7394	–	–	26.62 ± 0.3
[1], 313.15 K, x1 = 0.7966	943.29 ± 0.13	–	–
[1], 313.15 K, x1 = 0.8115	–	–	27.13 ± 0.3
[1], 313.15 K, x1 = 0.8972	975.49 ± 0.12	–	–
[1], 313.15 K, x1 = 0.9186	–	–	28.62 ± 0.32
[1], 313.15 K, x1 = 0.9505	993.41 ± 0.11	–	–
[1], 313.15 K, x1 = 0.9738	–	–	30.17 ± 0.34
[2], 283.15 K, φ1 = 0.0478	–	1.4305 ± 0.00031	–
[2], 283.15 K, φ1 = 0.075	–	1.42987 ± 0.00031	–
[2], 283.15 K, φ1 = 0.1601	–	1.42827 ± 0.00031	–
[2], 283.15 K, φ1 = 0.251	–	1.4271 ± 0.00031	–
[2], 283.15 K, φ1 = 0.3438	–	1.42629 ± 0.00031	–
[2], 283.15 K, φ1 = 0.4452	–	1.42577 ± 0.00031	–
[2], 283.15 K, φ1 = 0.5448	–	1.42557 ± 0.00031	–
[2], 283.15 K, φ1 = 0.649	–	1.42556 ± 0.00031	–
[2], 283.15 K, φ1 = 0.756	–	1.42585 ± 0.00031	–
[2], 283.15 K, φ1 = 0.8802	–	1.42643 ± 0.00031	–
[2], 283.15 K, φ1 = 0.9414	–	1.4268 ± 0.00031	–
[2], 298.15 K, φ1 = 0.0319	–	1.4226 ± 0.00031	–
[2], 298.15 K, φ1 = 0.0849	–	1.42144 ± 0.00031	–
[2], 298.15 K, φ1 = 0.1562	–	1.42012 ± 0.00031	–
[2], 298.15 K, φ1 = 0.2528	–	1.41893 ± 0.00031	–
[2], 298.15 K, φ1 = 0.3465	–	1.41821 ± 0.00031	–
[2], 298.15 K, φ1 = 0.4415	–	1.4178 ± 0.00031	–
[2], 298.15 K, φ1 = 0.5389	–	1.4177 ± 0.00031	–
[2], 298.15 K, φ1 = 0.651	–	1.41786 ± 0.00031	–
[2], 298.15 K, φ1 = 0.7604	–	1.41827 ± 0.00031	–
[2], 298.15 K, φ1 = 0.8701	–	1.41893 ± 0.00031	–
[2], 298.15 K, φ1 = 0.9439	–	1.41949 ± 0.00031	–
[2], 313.15 K, φ1 = 0.0381	–	1.41404 ± 0.00031	–
[2], 313.15 K, φ1 = 0.0816	–	1.41308 ± 0.00031	–
[2], 313.15 K, φ1 = 0.1625	–	1.41168 ± 0.00031	–
[2], 313.15 K, φ1 = 0.268	–	1.41055 ± 0.00031	–
[2], 313.15 K, φ1 = 0.3476	–	1.41002 ± 0.00031	–
[2], 313.15 K, φ1 = 0.4399	–	1.40973 ± 0.00031	–
[2], 313.15 K, φ1 = 0.5368	–	1.40971 ± 0.00031	–
[2], 313.15 K, φ1 = 0.6463	–	1.41003 ± 0.00031	–
[2], 313.15 K, φ1 = 0.7626	–	1.41069 ± 0.00031	–
[2], 313.15 K, φ1 = 0.8682	–	1.41143 ± 0.00031	–
[2], 313.15 K, φ1 = 0.9462	–	1.4121 ± 0.00031	–
